Assay results from patent publication US9040568B2, “Pharmaceutical compositions for the treatment of pain” (AbbVie Inc., priority 2009, dated 2015).
Where a name gives a salt, the structure may show the parent alone.

Assays:
[1] = target: T1, human α4β2 nicotinic acetylcholine receptor subtype expressed in HEK-293 cells (Homo sapiens, UniProt P17787+P43681); test: Calcium flux assay (FLIPR) in HEK-293 cells expressing human α4β2; assay type: cell-based
T1 construct: expressed in transfected cells
Procedure: Calcium Flux Assays Using Cells Expressing nAChR Subtypes
Human embryonic kidney (HEK) 293 cells stably expressing human α4β2 or α3β4 combinations are grown to confluency in 162 cm^2 tissue culture flasks in DMEM media supplemented with 10% FBS and 25 μg/ml zeocin and 200 μg/ml hygromycin B. IMR-32 neuroblastoma cells (ATCC) are grown to confluency in 162 cm^2 tissue culture flasks in minimum essential media supplemented with 10% FBS and 1 mM sodium pyruvate, 1% non-essential amino acids and 1% antibiotic-antimycotic. The cells are then dissociated using cell dissociation buffer and 100-150 μl per well of 3.5×10^5 cells/ml cell suspension (˜50,000-100,000 cells/well) was plated into 96-well black plates (poly-D-lysine precoated) with clear bottom and maintained for 24-48 hours in a tissue culture incubator at 37° C. under an atmosphere of 5% CO2: 95% air. Other clonal cell lines or primary cell cultures that express endogenous α4* nicotinic receptors may also be used in this assay. Calcium flux was measured using calcium-3 assay kit (Molecular Devices, Sunnyvale, Calif.) or fluo-4 (Invitrogen). A stock solution of the dye was prepared by dissolving each vial supplied by the vendor in Hank's balanced salt solution buffer (HBSS) or 150 mM NMDG, 20 mM CaCl2 containing 10 mM HEPES, The stock solution was diluted 1:20 using the same buffer before use. The growth media was removed from the cells. The cells were loaded with 100 μl of the dye per well and incubated at room temperature for up to one hour for HEK 293 clonal stable cell lines or 30 minutes-45 minutes at 37° C. for IMR-32 cells Fluorescence measurements were read simultaneously from all the wells by a Fluorometic Imaging Plate Reader (FLIPR) at an excitation wavelength of 480 nm and an emission wavelength of 520 nm. Baseline fluorescence was measured for the first 6 seconds at which 3× concentrations of modulator/test compounds were added to the cell plate at 50 μl and incubated for five minutes. The fluorescence intensity was captured every second for the first 1 minute followed by every 5 seconds for an additional 4 minutes. This procedure was followed by 50 μl of 4× concentration of agonist and readings were taken for a period of 3-5 minutes as described above. Data was normalized to maximal responses and plotted as a function of concentration. The concentration dependence of changes fluorescence responses was fitted by nonlinear regression analysis (GraphPad Prism, San Diego, Calif.) to obtain EC50 values.
The positive allosteric modulator effects on α4β2nAChRs exemplified by 3-(3-pyridin-3-yl-1,2,4-oxadiazol-5-yl)benzonitrile (Compound 1) and 3,5-di(pyridin-3-yl)-1,2,4-oxadiazole (Compound 2) can be identified by measuring their potentiating effect to fluorescence changes in intracellular calcium using a fluorimetric plate reader. The potentiating effect of an α4β2 modulator on α4β2 receptor can also be illustrated by concentration responses to α4β2 agonists, for example 5-[(2R)-azetidin-2-ylmethoxy]-2-chloropyridine (Compound A) and (3R)-1-pyridin-3-ylpyrrolidin-3-amine (Compound B), in presence of a fixed concentration of PAM. […] In addition to compound A and B, other known nicotinic agonists can be left-shifted in presence of α4β2 PAM such as 3-(3-(pyridin-3-yl)-1,2,4-oxadiazol-5-yl)benzonitrile (Compound 1, FIG. 2C). […]

α4β2 nAChR = α4β2 nAChR (UniProt P09483+P12390); test: [^3H]-cytisine binding assay
Source text: One manner for characterizing α4β2 receptor ligands is by a binding assay. […] The [^3H]-cytisine binding assays have been well reported; however, further details for carrying out the assays can be obtained in International Publication No. WO 99/32480; U.S. Pat. Nos. 5,948,793 and 5,914,328; WO 2004/018607; U.S. Pat. No. 6,809,105; WO 00/71534; and U.S. Pat. No. 6,833,370.

[2] = test system: nerve injury induced mechanical allodynia; test: Chung model of neuropathic pain (L5-L6 spinal nerve ligation, tactile allodynia, von Frey); assay type: in vivo, rat
Procedure: To assess whether α4β2 PAM can increase antinociceptive responses of agonists in vivo, the following study was conducted. The materials and methods used to accomplish the study follow.
Male Sprague-Dawley rats (Charles River, Wilmington, Mass.) weighing 120-150 grams at time of surgery were utilized. These animals were group housed in AAALAC approved facilities at Abbott Laboratories in a temperature-regulated environment with lights on between 0700 and 2000 hours. Food and water was available ad libitum except during testing. All animal handling and experimental protocols were approved by an institutional animal care and use committee (IACUC). All experiments were performed during the light cycle.
5[(2R)-Azetidin-2-ylmethoxy]-2-chloropyridine (Compound A, 1-100 nmol/kg) and 3-(3-pyridin-3-yl)-1,2,4-oxadiazol-5-yl)benzonitrile (α4β2 PAM Compound 1, 1-35 μmol/kg, i.p.) was used. Compound A and D was prepared in saline and injected in solution in a volume of 2 ml/kg body weight 30 minutes before behavioral evaluation. Compound 1,3-(3-(pyridin-3-yl)-1,2,4-oxadiazol-5-yl)benzonitrile, was prepared in 30% hydroxybetacyclodextrin and injected in solution in a volume of 4 ml/kg body weight immediately before Compound A. For studies with Compound D, the doses tested ranged from 0.3-30 μmol/kg i.p.
To produce neuropathic pain, tight ligation of the L5-L6 spinal nerves was performed. As previously described in detail by Kim and Chung (Kim S H and Chung J M (1992), Pain 50: 355), following sterilization procedures, a 1.5 cm incision was made dorsal to the lumbosacral plexus. The paraspinal muscles (left side) were separated from the spinous processes, the L5 and L6 spinal nerves isolated, and tightly ligated with 3-0 silk thread. Following hemostasis, the wound was sutured and coated with antibiotic ointment. The rats were allowed to recover and then placed in a cage with soft bedding for 7-14 days before behavioral testing for mechanical allodynia.
Tactile allodynia was measured using calibrated (force; g) von Frey filaments (Stoelting, Wood Dale, Ill.). Briefly, rats were placed into individual plexiglass containers and allowed to acclimate for 15-20 minutes before testing. Withdrawal threshold was determined by increasing and decreasing stimulus intensity and estimated using a Dixon non-parametric test (Chaplan et al., 1994; Chaplan S R, Bach F W, Pogrel J W, Chung J M and Yaksh T L (1994) J Neurosci Methods 53:55-63). Only rats with threshold scores<4.5 g were considered allodynic and utilized in further testing. A percent of maximal possible effect (% M.P.E.) of the tested compounds was calculated according to the formula: ([post-drug threshold]-[baseline threshold])/([maximum threshold]-[baseline threshold])×100%, where maximum threshold was equal to 15 g.
Analysis of the in vivo data was carried out using analysis of variance. Where appropriate, Bonferroni's Multiple Comparison Test was used for post-hoc analysis. The level of significance was set at p less than 0.05. Data are presented as mean±S.E.M.

α4β2nAChR modulator site = target: T2, α4β2nAChR modulator site (Homo sapiens, UniProt P17787+P43681); test: [^3H]-POB binding, membrane enriched fractions from human cortex; conditions: saturation binding, human frontal cortex membranes, 4° C.
T2 construct: membrane enriched fractions from human cortex (ABS Inc., Wilmington, Del.); tissue ABS Inc., Wilmington, Del; host or cells: human cortex (frontal cortex) membrane enriched fractions
Procedure: In addition to the assays previously described for assessing nicotinic acetylcholine receptor positive allosteric modulators (fluoroscence-based measurements, electrophysiology measurements using Xenopus oocytes or cell lines), the receptor interactions of positive allosteric modulators at α4β2 nAChRs also can be evaluated according to the [^3H]-POB binding assay, which was performed as described below.
[^3H]-POB ([^3H]-3-(5-(pyridin-3-yl)-1,2,4-oxadiazol-3-yl)benzonitrile) binding to a α4β2nAChR modulator site was determined using membrane enriched fractions from human cortex (ABS Inc., Wilmington, Del.). […] Non-specific binding was determined in the presence of 30 μM unlabeled 3-(5-(pyridin-3-yl)-1,2,4-oxadiazol-3-yl)benzonitrile. Under these conditions, saturable binding of [^3H]-POB binding was measured in membrane enriched fractions from human frontal cortex (FIG. 10). […]
For use in concentration-inhibition assays, seven log-dilution concentrations of test compounds containing […] of protein, and 50 nM [^3H]-POB (16.4 Ci/mmol) were incubated in a final volume of 500 μL for 75 minutes at 4° C. in duplicate. Non-specific binding was determined in the presence of 30 μM 3-(5-(pyridin-3-yl)-1,2,4-oxadiazol-3-yl)benzonitrile. […] IC50 values were determined by nonlinear regression in Microsoft® Excel or Assay Explorer. […]

[3] = co-applied with the PAM Compound 1, α4β2 nAChRs

T1 sequence (P43681 29-627 limits assumed): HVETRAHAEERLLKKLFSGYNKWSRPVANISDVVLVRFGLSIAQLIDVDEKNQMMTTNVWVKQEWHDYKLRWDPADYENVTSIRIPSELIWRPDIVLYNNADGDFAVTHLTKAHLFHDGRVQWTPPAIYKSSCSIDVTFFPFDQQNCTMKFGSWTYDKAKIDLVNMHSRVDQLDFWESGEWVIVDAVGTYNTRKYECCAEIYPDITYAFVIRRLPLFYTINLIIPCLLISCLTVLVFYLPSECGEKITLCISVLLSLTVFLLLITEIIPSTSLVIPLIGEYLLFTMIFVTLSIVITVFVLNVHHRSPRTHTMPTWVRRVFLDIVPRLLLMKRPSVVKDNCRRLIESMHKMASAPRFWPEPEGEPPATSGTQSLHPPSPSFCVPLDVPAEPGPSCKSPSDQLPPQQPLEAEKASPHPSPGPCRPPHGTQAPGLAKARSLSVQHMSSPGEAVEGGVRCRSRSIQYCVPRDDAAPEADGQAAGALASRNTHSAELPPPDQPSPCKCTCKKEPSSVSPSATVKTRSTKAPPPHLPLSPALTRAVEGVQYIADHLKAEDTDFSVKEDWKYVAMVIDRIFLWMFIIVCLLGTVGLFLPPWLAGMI
T1 sequence (P17787 26-502): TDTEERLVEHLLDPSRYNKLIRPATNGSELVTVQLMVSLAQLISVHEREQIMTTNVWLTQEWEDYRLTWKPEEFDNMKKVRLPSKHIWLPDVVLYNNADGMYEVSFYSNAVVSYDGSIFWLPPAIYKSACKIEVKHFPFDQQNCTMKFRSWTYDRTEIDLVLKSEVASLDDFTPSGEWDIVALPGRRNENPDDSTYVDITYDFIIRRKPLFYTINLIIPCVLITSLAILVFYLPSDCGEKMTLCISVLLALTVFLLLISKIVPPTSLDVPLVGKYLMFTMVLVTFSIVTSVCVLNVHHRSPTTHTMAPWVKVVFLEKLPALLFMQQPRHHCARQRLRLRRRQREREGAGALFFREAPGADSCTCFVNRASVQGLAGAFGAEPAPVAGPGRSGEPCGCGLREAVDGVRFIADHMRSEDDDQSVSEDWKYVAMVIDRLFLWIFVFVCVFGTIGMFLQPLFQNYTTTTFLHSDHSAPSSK
T2 sequence (P43681 29-627 limits assumed): as the sequence (P43681 29-627 limits assumed) above
T2 sequence (P17787 26-502): as the sequence (P17787 26-502) above

Cc1ncccc1OC[C@@H]1CCCN1 [Compound C, 2-methyl-3-(2-(S)-pyrrolidinylmethoxy)pyridine]
calcium response [1, 3]: evoked robust responses | calcium response ([1]; ligand alone, α4β2 nAChRs): does not evoke a calcium response

c1ccc2ncc(N3C[C@@H]4CN[C@@H]4C3)cc2c1 [Compound D, (1S,5S)-3-(3,6-diaza-bicyclo[3.2.0]hept-3-yl)-quinoline]
calcium response [1, 3]: evoked robust responses | calcium response ([1]; ligand alone, α4β2 nAChRs): does not evoke a response | Ki (α4β2 nAChR): 6 nM | efficacy in neuropathic pain ([2]; administered alone): ineffective in reversing neuropathic pain | efficacy in neuropathic pain ([2]; combined with the PAM (Compound 1)): significant efficacy can be realized

Fc1ccc(-c2nc(-c3cncnc3)no2)cc1F [Example 101, 5-(3,4-difluorophenyl)-3-(pyrimidin-5-yl)-1,2,4-oxadiazole tosylate]
Activity (allosteric effects-potentiation of fluorescence responses) [1]: a (“a” denotes as activity range from 200-400%)

[3H]c1cncc(-c2nc(-c3cccc(C#N)c3)no2)c1 [[^3H]-POB, [^3H]-3-(5-(pyridin-3-yl)-1,2,4-oxadiazol-3-yl)benzonitrile]
Bmax (α4β2nAChR modulator site): 2900±500 fmol/mg protein
